Test results: publication PMC8761912, “Cryptosporidium parvum Pyruvate Kinase Inhibitors With in vivo Anti-cryptosporidial Efficacy” (Frontiers in Microbiology, 2022)
Where two headings read alike, the source gives them in different places.

Assays:
C. parvum [1] = assay: In vivo efficacy in C. parvum-infected IFN-γ KO mice, fecal oocysts load by qPCR; design: species or system Cryptosporidium parvum; conditions: for relative potency among the treatments (oocysts load): 2.5 mg/kg NSC638080, NSC303244, NSC252172, 5 mg/kg NSC234945, paromomycin 1,000 mg/kg; for reduction in oocysts load compared to untreated mice / oocysts load compared to untreated mice: 10 mg/kg oral once daily; for reduction in oocysts load compared to untreated mice: day 9 PI; for oocysts load compared to untreated mice / potency, fold higher than paromomycin (1,000 mg/kg): day 10 PI; for potency, fold higher than paromomycin (1,000 mg/kg): 10 mg/kg
Method: Eight weeks old male interferon-gamma knockout (IFN-γ KO) mice (B6.129S7-Ifng^TM1Ts/J) were purchased from The Jackson Laboratory, United States, and allowed to quarantine and acclimatize for 1 week before the commencement of experiments. Before the start of the infection assays in mice, the tolerability of each inhibitor was determined by daily oral gavage with varying dosages (0–10 mg/kg mouse bodyweight) in groups of mice (n = 3 mice per group) for 8 days. During this period, mice were monitored daily for any changes in physical and mental activity, feeding, body weight, body temperature, fur condition, and body posture. […] Mice were divided into infected and uninfected groups (n = 3 mice per group) and each individual mouse was housed in a separate cage lined with sterile gauze bedding. Each mouse from the infected group was infected by oral gavage administration of 10^4 C. parvum AUCP-1 isolate oocysts suspended in 50 μl of PBS. Beginning day 3 PI, groups of mice were orally treated with CpPyK inhibitors (at the specified doses), sham (100 μl of 5% DMSO in PBS), or 1,000 mg/kg paromomycin (in sterile water) once daily for a total of 8 days. Fecal pellets were collected daily in individual sterile 15 ml tubes, and submerged in an equivalent volume of PBS containing a cocktail of penicillin (100 units/ml), streptomycin (100 μg/ml), chloramphenicol (34 μg/ml), and amphotericin (0.25 μg/ml), and stored at 4°C until use. Three independent replicate infection assays were performed. Mice were sacrificed at day 11 PI, and 5 cm of the distal small intestine just anterior to the cecum was resected and submerged in 10% neutral buffered formalin and submitted for histopathological processing in the Comparative Biosciences Histology Laboratory at the University of Illinois at Urbana-Champaign. Briefly, intestinal tissues preserved in 10% neutral buffered formalin were washed in 70% ethanol, embedded in paraffin, and sectioned transversely at a thickness of 5 μm. Sections were stained with hematoxylin and eosin. The slides were imaged using a Zeiss microscope fitted with a color camera.
DNA was isolated from 250 mg of feces collected from individual mice using the QIAamp® PowerFecal® Pro DNA kit (Qiagen, United States) following the manufacturer’s protocol. Oocysts load per gram of feces was measured by quantitative real time PCR (qPCR) analysis of the Cp18s rRNA gene (GenBank accession number AF164102) using gene-specific primers: 5′-[…]-3′ (Forward) and 5′-[…]-3′ (Reverse), described previously ([Parr et al., 2007]). To generate a quantification standard curve, fecal samples were obtained from uninfected mice and spiked with 10^8 C. parvum oocysts per gram of feces, followed by isolation of DNA as described above. Ten-fold serial dilutions of the extracted DNA were made and used as quantification standards for qPCR. C. parvum oocysts load quantification for the test mice was performed using DNA samples from the infected feces. Each 20 μl qPCR reaction contained 10 μl of PowerUp™ SYBR™ Green Master Mix (Applied Biosystems, United States), 500 nM of each primer, and 2 μl of DNA template. After 2 min of initial denaturation at 95°C, 40 cycles of denaturation at 95°C for 15 sec and annealing/extension at 60°C for 1 min were performed in a 7500 Real-Time PCR System (Applied Biosystems, United States). The oocyst load per gram of feces was derived by the 7500-system software using the generated quantification standard curves (Supplementary Figure 1).

C. parvum [2] = assay: In vitro anti-Cryptosporidium activity in infected HCT-8 cells (immunofluorescence assay); type: cell-based, Cryptosporidium parvum; conditions: for effect on in vitro proliferation and viability of C. parvum: 25 μM, added immediately after infection, 48 h of culture, vs untreated parasites; for EC50: Cryptosporidium parvum; for Selectivity index (CC50/EC50): HCT-8 CC50 / anti-C. parvum EC50; for effect on proliferation of intracellular C. parvum in HCT-8 cells: varying concentrations, 0 h or 2 h PI, analysed 48 h PI, vs infected cultures without compound
Method: Once confluent, the cells were infected with 10^5 freshly excysted C. parvum sporozoites per well, immediately followed by the addition of anti-CpPyK compounds (reconstituted in DMSO) to one set of wells. Control infected cells were treated with DMSO volumes equivalent to those used for the compound-treated cultures. Paromomycin reconstituted in distilled sterile water, served as a positive control at a concentration of 200 μM. […] Briefly, the medium was removed from the culture wells, and the cells were washed two times with PBS before fixation with pre-chilled methanol-acetic acid (9:1) for 5 min at room temperature. Residual fixative was removed by rinsing the wells with PBS. Cells were rehydrated and permeabilized by washing twice with a buffer containing 0.1% Triton X-100, 0.35 M NaCl, and 0.13 M Tris-base, pH 7.6. Normal goat serum (5% in PBS) was used as a blocking agent, and the cell monolayer was stained with a fluorescein-labeled anti-C. parvum polyclonal antibody (Sporo-Glo™; Waterborne, Inc.) overnight at 4°C. The stained cells were washed twice with PBS followed by the addition of 200 μl water to each well. Plates were then imaged with an inverted fluorescence microscope using a 20× objective. The fluorescence generated by intracellular C. parvum parasites was quantified from nine microscopic fields per well of a 96-well plate using the batch process function in ImageJ version v1.50 (NIH, United States) after setting a threshold for the detection of parasites. Control wells with uninfected monolayers were included for background subtraction. Experiments were performed in triplicate and repeated at least three times.
One set of wells with confluent HCT-8 cells received CpPyK inhibitors immediately after C. parvum infection, while the same compounds were added to the other set of wells 2 h post-infection (PI). Control infected cells were treated with varying volumes of DMSO equivalent to the ones used for the compound-treated cultures. Cell monolayers were processed for immunofluorescence analysis after 48 h of incubation as described above. Samples were run in triplicate and three independent assays were performed. EC50 values were calculated using non-linear regression analysis of the mean dose-response curve data in GraphPad PRISM® v8.

[3] = HCT-8, read-out: Anti-C. parvum EC50, 0 h PI
[4] = HCT-8, read-out: Anti-C. parvum EC50, 2 h PI
[5] = 2.5 mg/kg oral once daily from day 3 PI for 8 days

Structure (SMILES)	relative potency among the treatments (oocysts load) (C. parvum [1])	oocysts load by day 9 PI vs other treatments and untreated group (C. parvum [1]; 5 mg/kg oral once daily from day 3 PI)	load of C. parvum oocysts shed in feces (C. parvum [1]; 5 mg/kg oral once daily from day 3 PI for 8 days)	reduction in oocysts load compared to untreated mice (C. parvum [1])	oocysts load compared to untreated mice (C. parvum [1])	potency, fold higher than paromomycin (1,000 mg/kg) (C. parvum [1])	effect on in vitro proliferation and viability of C. parvum (C. parvum [2])	EC50 (C. parvum [2]; [3])	EC50 (C. parvum [2]; [4])	Selectivity index (CC50/EC50) (C. parvum [2])	effect on proliferation of intracellular C. parvum in HCT-8 cells (C. parvum [2])	load of C. parvum oocysts shed in feces (C. parvum [1]; [5])
c1ccc(-c2nnc(-c3ccccn3)[nH]2)nc1 [NSC234945, 2-(3-pyridin-2-yl-1H-1,2,4-triazol-5-yl)pyridine]	highest potency	significantly (P < 0.05) lower oocysts loads	significant reduction	about threefold reduction in oocysts load	about ninefold lower oocysts load	about 2.5 fold	significant inhibitory effect	86 µM	89.6 µM	5.02	significant (P < 0.05) concentration-dependent inhibitory effect	
CCOc1ccc(/C=C2\CCc3ccccc3C2=O)cc1 [NSC252172, (2E)-2-[(4-ethoxyphenyl)methylidene]-3,4-dihydronaphthalen-1-one]				about threefold reduction in oocysts load	about ninefold lower oocysts load	about 2.5 fold	significant inhibitory effect	17.6 µM	18.7 µM	15.10	significant (P < 0.05) concentration-dependent inhibitory effect	significant reduction
Cc1cc2c(c(C#N)c1C)NC=NC2C (stereo not drawn) [NSC303244, 4,6,7-trimethyl-1,4-dihydroquinazoline-8-carbonitrile]							significant inhibitory effect	10.3 µM	15.8 µM	64.15	significant (P < 0.05) concentration-dependent inhibitory effect	significant reduction
N#C/C(=C\c1cc(O)c(O)c(O)c1)C(N)=O [NSC638080, (E)-2-cyano-3-(3,4,5-trihydroxyphenyl)prop-2-enamide]	least efficacy						significant inhibitory effect	10.9 µM	14.7 µM	68.96	significant (P < 0.05) concentration-dependent inhibitory effect	significant reduction
